# According to ChEMBL document CHEMBL1153125, “Benzylidene cyclopentenediones: First irreversible inhibitors against botulinum neurotoxin A's zinc endopeptidase” (Bioorg Med Chem Lett, 2010):
# Columns and labels:
# [1] = biological target: Botulinum neurotoxin type A (Clostridium botulinum) (UniProt P0DPI0); experiment: Ratio of Kinact to Ki for Clostridium botulinum BoNT/A
# [2] = Selectivity for Clostridium botulinum BoNT/A over MMP9
# [3] = biological target: Matrix metalloproteinase-9 (Homo sapiens) (UniProt P14780); experiment: Ratio of Kinact to Ki for MMP9
# [4] = biological target: Botulinum neurotoxin type A (Clostridium botulinum, UniProt P0DPI0); experiment: Inhibition of Clostridium botulinum BoNT/A
# [5] = biological target: 72 kDa type IV collagenase (Homo sapiens) (UniProt P08253); experiment: Ratio of Kinact to Ki for MMP2
# 72 kDa type IV collagenase (Homo sapiens), sequence (P08253 110-660 limits assumed): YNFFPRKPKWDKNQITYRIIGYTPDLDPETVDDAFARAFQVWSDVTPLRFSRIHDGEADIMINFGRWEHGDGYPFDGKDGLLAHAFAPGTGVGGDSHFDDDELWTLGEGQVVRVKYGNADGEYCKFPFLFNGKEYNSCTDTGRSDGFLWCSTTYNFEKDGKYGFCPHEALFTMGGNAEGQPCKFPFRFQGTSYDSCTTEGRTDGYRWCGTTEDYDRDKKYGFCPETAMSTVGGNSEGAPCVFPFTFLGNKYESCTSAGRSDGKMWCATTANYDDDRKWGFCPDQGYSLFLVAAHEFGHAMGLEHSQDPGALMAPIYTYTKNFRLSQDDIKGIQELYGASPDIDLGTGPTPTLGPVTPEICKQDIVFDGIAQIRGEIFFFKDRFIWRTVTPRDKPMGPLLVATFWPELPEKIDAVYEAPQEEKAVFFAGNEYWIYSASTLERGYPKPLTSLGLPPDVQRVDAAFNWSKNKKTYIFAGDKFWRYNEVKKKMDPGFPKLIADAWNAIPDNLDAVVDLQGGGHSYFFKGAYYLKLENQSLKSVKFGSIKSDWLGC
# Botulinum neurotoxin type A (Clostridium botulinum), sequence (P0DPI0 2-448 limits assumed): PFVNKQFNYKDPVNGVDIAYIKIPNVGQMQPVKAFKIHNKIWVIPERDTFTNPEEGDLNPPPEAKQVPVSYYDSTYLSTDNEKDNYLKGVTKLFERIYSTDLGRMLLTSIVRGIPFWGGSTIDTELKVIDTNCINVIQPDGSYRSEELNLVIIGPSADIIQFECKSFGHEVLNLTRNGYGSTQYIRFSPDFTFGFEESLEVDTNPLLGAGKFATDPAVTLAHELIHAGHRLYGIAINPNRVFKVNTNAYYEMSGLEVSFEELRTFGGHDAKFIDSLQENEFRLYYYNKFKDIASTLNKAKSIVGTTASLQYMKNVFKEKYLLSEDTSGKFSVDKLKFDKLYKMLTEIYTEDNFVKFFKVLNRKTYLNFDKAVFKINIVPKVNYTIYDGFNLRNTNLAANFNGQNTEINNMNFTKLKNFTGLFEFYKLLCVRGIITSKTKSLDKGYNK
# Matrix metalloproteinase-9 (Homo sapiens), sequence (P14780 whole entry): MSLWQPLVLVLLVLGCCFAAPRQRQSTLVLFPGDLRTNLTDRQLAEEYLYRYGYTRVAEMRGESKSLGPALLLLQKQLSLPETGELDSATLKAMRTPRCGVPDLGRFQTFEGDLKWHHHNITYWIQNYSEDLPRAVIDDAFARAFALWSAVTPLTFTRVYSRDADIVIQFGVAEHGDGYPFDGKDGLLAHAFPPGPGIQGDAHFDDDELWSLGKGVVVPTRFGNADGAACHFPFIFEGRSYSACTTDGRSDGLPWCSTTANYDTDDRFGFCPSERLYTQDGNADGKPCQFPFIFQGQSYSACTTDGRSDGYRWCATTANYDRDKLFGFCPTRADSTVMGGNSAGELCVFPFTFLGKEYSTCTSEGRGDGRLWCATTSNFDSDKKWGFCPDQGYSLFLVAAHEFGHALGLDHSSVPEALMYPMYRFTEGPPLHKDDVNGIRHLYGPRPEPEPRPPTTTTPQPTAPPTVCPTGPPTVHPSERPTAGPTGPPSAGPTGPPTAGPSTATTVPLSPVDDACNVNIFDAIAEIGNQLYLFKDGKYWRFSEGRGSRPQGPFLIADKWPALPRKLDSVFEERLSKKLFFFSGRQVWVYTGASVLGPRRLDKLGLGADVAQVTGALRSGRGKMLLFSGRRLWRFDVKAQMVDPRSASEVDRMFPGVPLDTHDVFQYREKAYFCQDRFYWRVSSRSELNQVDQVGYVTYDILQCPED
# Botulinum neurotoxin type A, sequence (P0DPI0 2-448 limits assumed): as the sequence (P0DPI0 2-448 limits assumed) above
Compound,Ratio [1],Selectivity ratio [2],Ratio [3],IC50 [4],Ratio [5]
Cc1cc(Cl)ccc1C=C1C(=O)C=CC1=O,580,9,58,–,–
CCCCCc1ccc(C(=O)NO)cc1,–,–,–,41 µM,–
Cc1cc(Cl)ccc1/C=C/C(=O)NO,–,–,–,0.8 µM,–
CCCCCc1ccc(C=C2C(=O)C=CC2=O)cc1,80,–,–,–,–
O=C1C=CC(=O)C1=Cc1ccc(Cl)cc1Cl,520,9,61,–,< 33
